Data reported in US7271165B2, “Rifamycin analogs and uses thereof” (priority 2003, dated 2007).
Values after ≈ are worked out from the molar mass of the structure shown.

What was measured:
S. aureus = assay: MIC assay, S. aureus; format: cell-based, Staphylococcus aureus
E. faecalis = assay: MIC assay, E. faecalis; format: cell-based, Enterococcus faecalis
E coli = assay: MIC assay, E coli; format: cell-based
S. pneumo. = assay: MIC assay, S. pneumo.; format: cell-based, Streptococcus pneumoniae
H. flu = format: cell-based, H. influenza; conditions: H. flu

SMILES: CO[C@H]1/C=C/O[C@@]2(C)Oc3c(C)c(O)c4c(=O)c(c5oc6cc(N7CCC(N(C)C)CC7)cc(O)c6nc-5c4c3C2=O)NC(=O)/C(C)=C\C=C\[C@H](C)[C@H](O)[C@@H](C)[C@@H](O)[C@@H](C)[C@H](O)[C@@H]1C [Compound 18, 25-O-deacetyl-3′-hydroxy-5′-(4-N,N dimethylamino-1-piperidinyl)benzoxazinorifamycin]
- MIC (μg/mL) S. aureus (S. aureus): 0.004 µg/mL (≈ 0.00452 µM)
- MIC (μg/mL) E. faecalis (E. faecalis): 0.12 µg/mL (≈ 0.136 µM)
- MIC (μg/mL) E coli (E coli): 4 µg/mL (≈ 4.52 µM)
- MIC (μg/mL) S. pneumo. (S. pneumo.): 0.00012 µg/mL (≈ 0.000136 µM)
- MIC (μg/mL) H. flu (H. flu): 0.5 µg/mL (≈ 0.565 µM)

SMILES: CCOC(=O)NC1CCN(c2ccc3nc4c5c6c7c(C)c(O)c5c(=O)c(c-4n(C)c3c2)NC(=O)/C(C)=C\C=C\[C@H](C)[C@H](O)[C@@H](C)[C@@H](O)[C@@H](C)[C@H](OC(C)=O)[C@H](C)[C@@H](OC)/C=C/O[C@@](C)(O7)C6=O)CC1 [Compound 19]
- MIC (μg/mL) S. aureus (S. aureus): 0.004 µg/mL (≈ 0.00413 µM)
- MIC (μg/mL) E. faecalis (E. faecalis): 0.06 µg/mL (≈ 0.062 µM)
- MIC (μg/mL) E coli (E coli): 4 µg/mL (≈ 4.13 µM)
- MIC (μg/mL) S. pneumo. (S. pneumo.): 0.001 µg/mL (≈ 0.00103 µM)
- MIC (μg/mL) H. flu (H. flu): 0.25 µg/mL (≈ 0.258 µM)

SMILES: COC1C=COC2(C)Oc3c(C)c(O)c4c(=O)c(c5oc6cc(N7CC8C(N)C8C7)cc(O)c6nc-5c4c3C2=O)NC(=O)C(C)=CC=CC(C)C(O)C(C)C(O)C(C)C(O)C1C [Compound 20, 25-O-deacetyl-3′-hydroxy-5′-[6-amino-(1R,5S)-3-azabicyclo[3.1.0]hex-3-yl]benzoxazinorifamycin]
- MIC (μg/mL) S. aureus (S. aureus): 2 µg/mL (≈ 2.34 µM)
- MIC (μg/mL) E. faecalis (E. faecalis): >8 µg/mL
- MIC (μg/mL) E coli (E coli): >8 µg/mL
- MIC (μg/mL) S. pneumo. (S. pneumo.): 1 µg/mL (≈ 1.17 µM)
- MIC (μg/mL) H. flu (H. flu): >8 µg/mL

SMILES: CCOC(=O)NC1C2CN(c3cc(O)c4nc5c6c7c8c(C)c(O)c6c(=O)c(c-5oc4c3)NC(=O)C(C)=CC=CC(C)C(O)C(C)C(O)C(C)C(OC(C)=O)C(C)C(OC)C=COC(C)(O8)C7=O)CC21 (stereo not drawn) [Compound 21]
- MIC (μg/mL) S. aureus (S. aureus): 0.004 µg/mL (≈ 0.00413 µM)
- MIC (μg/mL) E. faecalis (E. faecalis): 0.12 µg/mL (≈ 0.124 µM)
- MIC (μg/mL) E coli (E coli): 4 µg/mL (≈ 4.13 µM)
- MIC (μg/mL) S. pneumo. (S. pneumo.): 0.001 µg/mL (≈ 0.00103 µM)
- MIC (μg/mL) H. flu (H. flu): 0.5 µg/mL (≈ 0.516 µM)

SMILES: CO[C@H]1/C=C/O[C@@]2(C)Oc3c(C)c(O)c4c(=O)c(c5oc6cc(N7CCC(NC(=O)OC(C)C)CC7)cc(O)c6nc-5c4c3C2=O)NC(=O)/C(C)=C\C=C\[C@H](C)[C@H](O)[C@@H](C)[C@@H](O)[C@@H](C)[C@H](OC(C)=O)[C@@H]1C [Compound 22]
- MIC (μg/mL) S. aureus (S. aureus): 0.015 µg/mL (≈ 0.0152 µM)
- MIC (μg/mL) E. faecalis (E. faecalis): 4 µg/mL (≈ 4.06 µM)
- MIC (μg/mL) E coli (E coli): >8 µg/mL
- MIC (μg/mL) S. pneumo. (S. pneumo.): 0.00025 µg/mL (≈ 0.000254 µM)
- MIC (μg/mL) H. flu (H. flu): 2 µg/mL (≈ 2.03 µM)

SMILES: CO[C@H]1/C=C/O[C@@]2(C)Oc3c(C)c(O)c4c(=O)c(c5oc6cc(N7CCC(NS(=O)(=O)C(F)(F)F)CC7)cc(O)c6nc-5c4c3C2=O)NC(=O)/C(C)=C\C=C\[C@H](C)[C@H](O)[C@@H](C)[C@@H](O)[C@@H](C)[C@H](OC(C)=O)[C@@H]1C [Compound 23]
- MIC (μg/mL) S. aureus (S. aureus): 0.015 µg/mL (≈ 0.0145 µM)
- MIC (μg/mL) E. faecalis (E. faecalis): 4 µg/mL (≈ 3.88 µM)
- MIC (μg/mL) E coli (E coli): >8 µg/mL
- MIC (μg/mL) S. pneumo. (S. pneumo.): 0.00012 µg/mL (≈ 0.000116 µM)
- MIC (μg/mL) H. flu (H. flu): 2 µg/mL (≈ 1.94 µM)

SMILES: CCCC(=O)NC1CCN(c2cc(O)c3nc4c5c6c7c(C)c(O)c5c(=O)c(c-4oc3c2)NC(=O)/C(C)=C\C=C\[C@H](C)[C@H](O)[C@@H](C)[C@@H](O)[C@@H](C)[C@H](OC(C)=O)[C@H](C)[C@@H](OC)/C=C/O[C@@](C)(O7)C6=O)CC1 [Compound 24, 3′-hydroxy-5′-[4-butanamide-1-piperidinyl]benzoxazinorifamycin]
- MIC (μg/mL) S. aureus (S. aureus): 0.015 µg/mL (≈ 0.0155 µM)
- MIC (μg/mL) E. faecalis (E. faecalis): 2 µg/mL (≈ 2.06 µM)
- MIC (μg/mL) E coli (E coli): >8 µg/mL
- MIC (μg/mL) S. pneumo. (S. pneumo.): 0.001 µg/mL (≈ 0.00103 µM)
- MIC (μg/mL) H. flu (H. flu): 2 µg/mL (≈ 2.06 µM)

SMILES: CO[C@H]1/C=C/O[C@@]2(C)Oc3c(C)c(O)c4c(=O)c(c5oc6cc(N7CCC(NS(C)(=O)=O)CC7)cc(O)c6nc-5c4c3C2=O)NC(=O)/C(C)=C\C=C\[C@H](C)[C@H](O)[C@@H](C)[C@@H](O)[C@@H](C)[C@H](OC(C)=O)[C@@H]1C [Compound 25]
- MIC (μg/mL) S. aureus (S. aureus): 0.008 µg/mL (≈ 0.00819 µM)
- MIC (μg/mL) E. faecalis (E. faecalis): 2 µg/mL (≈ 2.05 µM)
- MIC (μg/mL) E coli (E coli): >8 µg/mL
- MIC (μg/mL) S. pneumo. (S. pneumo.): 0.001 µg/mL (≈ 0.00102 µM)
- MIC (μg/mL) H. flu (H. flu): 2 µg/mL (≈ 2.05 µM)

SMILES: CCCNC(=O)NC1CCN(c2cc(O)c3nc4c5c6c7c(C)c(O)c5c(=O)c(c-4oc3c2)NC(=O)/C(C)=C\C=C\[C@H](C)[C@H](O)[C@@H](C)[C@@H](O)[C@@H](C)[C@H](O)[C@H](C)[C@@H](OC)/C=C/O[C@@](C)(O7)C6=O)CC1 [Compound 26, 25-O-deacetyl-3′-hydroxy-5′-[4-propyluryl-1-piperidinyl]benzoxazinorifamycin]
- MIC (μg/mL) S. aureus (S. aureus): 0.008 µg/mL (≈ 0.00849 µM)
- MIC (μg/mL) E. faecalis (E. faecalis): 2 µg/mL (≈ 2.12 µM)
- MIC (μg/mL) E coli (E coli): >8 µg/mL
- MIC (μg/mL) S. pneumo. (S. pneumo.): 0.00012 µg/mL (≈ 0.000127 µM)
- MIC (μg/mL) H. flu (H. flu): 1 µg/mL (≈ 1.06 µM)
